{"source": "patent US20240139167A1", "about": "“LYSOSOME-ASSOCIATED MEMBRANE PROTEIN TARGETING COMPOUNDS AND USES THEREOF” (HADASIT MEDICAL RESEARCH SERVICES AND DEVELOPMENT LTD., priority 2021, published 2024)", "key": {"[1]": {"tested_on": "HC and PD patient fibroblasts", "experiment": "Seahorse ATP rate assay in Pompe disease fibroblasts", "type": "cell-based, human", "experimental": "FIG. 17 includes a vertical bar graph showing glycolytic (1) and mitochondrial (2) ATP production determined by Agilent's Seahorse machine and ATP rate assay kit. HC and PD patient fibroblasts were serum/glucose-starved for 48 h and then full medium was replenished for 24 h without (untreated), or with (chronic) 50 μM 144DG11. Acute, 50 μM 144DG11 was added on assay for 20 min after 24 h of serum/glucose replenishment. Readings were normalized to cell number as determined by Crystal Violet staining. Shown are mean and SD values based on n=6 repeats. In acutely 144DG11-treated PD fibroblasts, glycolytic and total ATP production was increased, as compared to untreated PD cells (p<0.002, One Way ANOVA with Sidak's post-hoc correction for multiple comparisons)."}, "[2]": {"target": "T1, deglycosylated luminal LAMP1 domain (Homo sapiens, UniProt P11279)", "T1 construct": "repeated the SPR experiments with a chemically deglycosylated luminal LAMP1 domain", "T1 sequence (P11279 29-382)": "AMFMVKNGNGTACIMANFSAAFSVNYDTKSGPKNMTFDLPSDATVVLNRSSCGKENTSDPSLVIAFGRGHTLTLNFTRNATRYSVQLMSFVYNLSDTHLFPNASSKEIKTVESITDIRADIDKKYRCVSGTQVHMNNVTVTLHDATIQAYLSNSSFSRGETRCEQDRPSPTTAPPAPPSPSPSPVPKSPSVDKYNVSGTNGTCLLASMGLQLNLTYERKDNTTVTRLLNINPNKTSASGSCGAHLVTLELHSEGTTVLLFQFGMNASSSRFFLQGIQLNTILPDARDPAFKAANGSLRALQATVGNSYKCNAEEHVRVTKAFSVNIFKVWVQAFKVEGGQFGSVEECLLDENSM", "experiment": "SPR with chemically deglycosylated LAMP1", "type": "binding", "experimental": "The inventors have investigated the mechanism of action of 144DG11. To that end, the inventors first decided to determine its molecular target. Nematic protein organization technique (NPOT, Inoviem, Ltd.) was applied to homogenates of APBD patient fibroblasts. The NPOT analysis has discovered protein hetero assemblies uniquely generated around 144DG11 only when it was added to the cell homogenates (FIG. 5A). The next step in this analysis has identified the interactome of protein targets interacting with 144DG11 in APBD patients' fibroblasts. […] Moreover, the inventors have tested by cellular thermal shift assay the specific interaction of 144DG11 with 6 of the 8 targets discovered by NPOT. […] This finding relates to a novel pathogenic hypothesis connecting cellular glycogen overload with glycogen trafficking to lysosomes via Starch Binding Domain containing Protein 1. To validate 144DG11's interaction with LAMP1, the inventors have used surface plasmon resonance (SPR) technology. […] The inventors hypothesized that this slow rate of association could be explained by inhibited diffusion of 144DG11 due to the bulky oligosaccharides at the glycosylation sites. […] In the search for a putative binding site for Compound 1 in LAMP1, the inventors have analyzed the N- and C-terminal subdomains of its luminal domain (residues A29-R195 and S217-D378, respectively), which have a similar topology. […]"}, "Gbe^ys/ys mice": {"tested_on": "Gbe^ys/ys mice", "experiment": "In vivo metabolism in metabolic cages", "details": "9 months old mice", "experimental": "FIGS. 3A-3I include a graph of the effect of Compound 1 on in vivo metabolism; mice were monitored by the Promethion High-Definition Behavioral Phenotyping System (Sable Instruments, Inc.) over a 24 hr period. Effective mass was calculated by power of 0.75. Data are mean±SEM from n=11 9 months old mice in the wt. control vehicle arm, n=6 9 months old mice in the GBE^ys/ys vehicle arm and n=7 9 months old mice in the Gbe^ys/ys 144DG11 (Compound 1)-treated arm. All injections were from the age of 4 months. […] Blood metabolic panel based on n=5, 9.5 months old mice treated as indicated (3I). Blood glucose was increased, and blood triglycerides decreased in Gbe^ys/ys […] by Compound 1 (p<0.05, Student's t-tests). *p<0.05 v wt. controls, #p<0.05 v GBE^ys/ys vehicle treated mice;\nThe effect of Compound 1 on various metabolic parameters was determined in vivo using metabolic cages. Fuel preference at the whole animal level is determined by the respiratory quotient (RQ, the ratio of CO2 produced to O2 consumed). Lower RQ indicates higher fat burn, while higher RQ indicates higher carbohydrate burn. […] Stimulation of ambulatory activity (FIG. 3E) and of meal size and water intake (FIGS. 3F-3H) are in line with this observation of stimulation of carbohydrate catabolism in affected animals by Compound 1. Moreover, put together, the increased fuel burning, and food intake indicate that Compound 1 can improve metabolic efficiency in the affected animals."}, "luminal portion of LAMP1": {"target": "T2, luminal portion of LAMP1 (Homo sapiens, UniProt P11279)", "T2 sequence (P11279 29-382 limits assumed)": "T1 sequence (P11279 29-382)", "experiment": "Surface plasmon resonance (SPR)", "type": "binding", "source_text": "FIGS. 5A-5E include images of experiments showing hetero-assembly forms around Compound 1 and not around endogenous molecules as shown by the liquid crystals formed in experiments 1-3 (5A); image of STRING network of targets at the interactome of Compound 1 (5B); cellular thermal shift assay (CETSA) of different targets of the Compound 1 hetero-assembly (5C); surface plasmon resonance sensograms of binding of Compound 1 to LAMP1 (5D); sensogram experiments consisting of association and dissociation at the indicated concentration ranges and pH values were then conducted.\nThe inventors have investigated the mechanism of action of 144DG11. To that end, the inventors first decided to determine its molecular target. Nematic protein organization technique (NPOT, Inoviem, Ltd.) was applied to homogenates of APBD patient fibroblasts. The NPOT analysis has discovered protein hetero assemblies uniquely generated around 144DG11 only when it was added to the cell homogenates (FIG. 5A). The next step in this analysis has identified the interactome of protein targets interacting with 144DG11 in APBD patients' fibroblasts. […] Moreover, the inventors have tested by cellular thermal shift assay the specific interaction of 144DG11 with 6 of the 8 targets discovered by NPOT. […] This finding relates to a novel pathogenic hypothesis connecting cellular glycogen overload with glycogen trafficking to lysosomes via Starch Binding Domain containing Protein 1. To validate 144DG11's interaction with LAMP1, the inventors have used surface plasmon resonance (SPR) technology. […] The inventors hypothesized that this slow rate of association could be explained by inhibited diffusion of 144DG11 due to the bulky oligosaccharides at the glycosylation sites. Therefore, the inventors have repeated the SPR experiments with a chemically deglycosylated luminal LAMP1 domain. […] The inventors have further investigated 144DG11 binding to LAMP1 by structure-based computational docking. In the search for a putative binding site for Compound 1 in LAMP1, the inventors have analyzed the N- and C-terminal subdomains of its luminal domain (residues A29-R195 and S217-D378, respectively), which have a similar topology. These domains were modeled and computationally docked against decoys to Compound 1 at the intralysosomal pH 5 based on the known crystal structure of mouse LAMP1 C-terminal domain (PDB ID 5gv0). […] However, they might still affect Compound 1 diffusion."}}}
{"smiles": "COCCN(Cc1sccc1C)C(=O)c1cc(C)nc(O)c1", "note": "[Compound 1]", "values": [{"measurement": "effect on ATP production", "setting": "[1]; 24 h pre-treatment", "value": "not significant"}, {"measurement": "overall ATP production", "setting": "[1]; PD fibroblasts, 50 μM", "value": "increased"}, {"measurement": "relative contribution of glycolytic ATP production at the expense of mitochondrial (OxPhos) ATP production", "setting": "[1]; PD fibroblasts, 50 μM", "value": "increased"}, {"measurement": "glycolytic and total ATP production", "setting": "[1]; PD fibroblasts, acute 50 μM 20 min, p<0.002", "value": "increased"}, {"measurement": "binding to deglycosylated LAMP1", "setting": "[2]", "value": "did not bind"}, {"measurement": "ambulatory activity", "setting": "Gbe^ys/ys mice", "value": "Stimulation"}, {"measurement": "carbohydrate burning at the expense of fat burning", "setting": "Gbe^ys/ys mice", "value": "increases"}, {"measurement": "meal size and water intake", "setting": "Gbe^ys/ys mice", "value": "Stimulation"}, {"measurement": "total energy expenditure", "setting": "Gbe^ys/ys mice", "value": "increases"}, {"measurement": "respiratory quotient (RQ)", "setting": "Gbe^ys/ys mice; injections from age 4 months", "value": "increased RQ to even higher levels than those of the wild type (wt) animals"}, {"measurement": "binding to LAMP1", "setting": "luminal portion of LAMP1; cytoplasmic pH 7", "value": "not at the cytoplasmic pH 7"}, {"measurement": "binding to LAMP1", "setting": "luminal portion of LAMP1; intermediate pH 6", "value": "some binding starting"}, {"measurement": "binding to LAMP1", "setting": "luminal portion of LAMP1; lysosomal pH 4.5-5", "value": "specific and dose-dependent binding"}, {"measurement": "kon (rate of association)", "setting": "luminal portion of LAMP1; pH 4.5", "value": "slow"}, {"measurement": "Kd", "setting": "luminal portion of LAMP1; read-out: apparent KD", "value": 6.3, "unit": "mM"}]}
